According to patent US8247429B2, “Tricyclic compound and pharmaceutical use thereof” (Takeda Pharmaceutical Company Limited, priority 2006, dated 2012):

Assays:
[1] = target: T1, human melatonin 2 receptors (human MT2 receptors) (Homo sapiens, UniProt P49286); assay: Melatonin receptor binding inhibitory test (2-[125I] Iodomelatonin), MT2; conditions: membrane fraction of CHO-hMT2 cells, 25° C. for 2.5 hr
T1 construct: expressed in transfected cells; membrane fraction used
T1 sequence (P49286 1-362): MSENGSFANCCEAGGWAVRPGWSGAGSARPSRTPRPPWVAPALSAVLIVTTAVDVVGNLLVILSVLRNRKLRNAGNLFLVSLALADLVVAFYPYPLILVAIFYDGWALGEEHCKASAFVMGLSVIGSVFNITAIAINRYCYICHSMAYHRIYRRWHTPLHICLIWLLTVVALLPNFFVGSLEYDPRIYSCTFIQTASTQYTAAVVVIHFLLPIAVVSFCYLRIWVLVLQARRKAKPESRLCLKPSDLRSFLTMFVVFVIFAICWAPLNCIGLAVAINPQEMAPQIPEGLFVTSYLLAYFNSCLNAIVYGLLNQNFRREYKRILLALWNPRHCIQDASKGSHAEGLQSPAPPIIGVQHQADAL
Protocol: (§1) Melatonin receptor binding inhibitory test
(2) Preparation of CHO-hMT2 Cells Expressing Human Melatonin 2 Receptors
A cDNA fragment (SEQ ID NO: 2) encoding full-length of human melatonin 2 receptors (human MT2 receptors) was incorporated into expression vector pCMV-Script (Stratagene, #212220) to give the plasmid that was pCMV-human MT2 receptors expression vector for animal cell expression. CHO-K1 cells (ATCC, #CCL-61) were plated at the concentration of 1.5×10^5 cells/cm^2 in a 6 well plate (ASAHI TECHNO GLASS), and cultured under the conditions of 37° C., 5% CO2 for 24 hr. For gene transfection, solution obtained by blending pCMV-human MT2 receptors expression vector (1.9 μg), Lipofectamine Transfection Reagent (Invitrogen, #18324-012) (11.3 μL) and Minimum Essential Medium Eagle (MEM) medium (Sigma, M8042) (93.8 μL), and reacting at room temperature for 20 min was added to the cells per one well. The transfected cells were cultured in MEM medium containing 10% FBS (Life Technology) and 300 μg/mL Geneticin (GIBCO, #10131), and the cell line that stably expressed the plasmid gene was selected. By a receptor binding assay using 2-[^125I] Iodomelatonin, CHO-hMT2 cell line showing specific binding of 2-[^125I] Iodomelatonin was selected from the obtained clones.
(§2) (3) Preparation of Cellular Membrane Fraction of CHO Cell (CHO-hMelR7 and CHO-hMT2) Stably Expressing Human MT1 and MT2 Receptors
(§3) CHO-hMelR7 and CHO-hMT2 cells were plated using Cellfactory (Nunc, #170009) under the conditions of 1×10^8 cells/2000 mL/flask. The cells were grown to confluent, and recovered by the following method. As the medium for CHO-hMelR7 and CHO-hMT2, MEM α containing 10% FBS and penicillin/streptomycin was used. […] of geneticin was added to the medium for CHO-hMT2.
(§4) The medium was discarded, cells were washed twice with 200 mL of EDTA/PBS(−), 200 mL of EDTA/PBS(−) was further added, and the cells were stood still at room temperature for 20 min until they were released. The cells were recovered in four 50 mL tubes (Becton Dickinson, #352070), and centrifuged at 1,500 rpm for 10 min at 4° C. using a low speed cooling centrifuge (Hitachi, CF7D2). The supernatant was discarded, the pellets in the four tubes were suspended in 10 mL of PBS(−), and combined in one tube (Becton Dickinson, #352070). The mixture was further centrifuged at 1,500 rpm for 10 min at 4° C., and the obtained pellets were suspended in 20 mL of ice-cooled homogenizing buffer [10 mM NaHCO3, 5 mM EDTA, Protease inhibitor Complete (Roche), pH 7.4]. The cell suspension was homogenized 3 times using a polytron homogenizer at 20,000 rpm for 30 sec. The obtained homogenate was centrifuged (2,000 rpm, 10 min, 4° C.) using a low speed cooling centrifuge. The supernatant was recovered in an ultracentrifugation tube and ultracentrifuged (40,000 rpm, 60 min, 4° C.) using an ultracentrifuge (Beckman, L-90K). To the obtained pellets was added a suspending buffer [50 mM Tris-HCl, 1 mM EDTA, Protease inhibitor Complete (Roche), pH 7.4], and the pellets were suspended by pipetting. The protein concentration of this suspension was measured, diluted to 2 mg/mL to give cellular membrane fractions of CHO-hMelR7 and CHO-hMT2 cells. The membrane fractions were dispensed to 1.5 mL tubes (Eppendorf, #0030120.086) by 100 μL, preserved in a freezer (−80° C.) and used for a binding assay. Protein was quantified using BCA protein assay kit (Pierce) with BSA as the standard.
(§5) (4) Preparation of Membrane Fraction Suspension
(§6) Immediately before use, the membrane fractions of CHO-hMelR7 and CHO-hMT2 cells of the above-mentioned (3) were diluted 20-fold with assay buffer (50 mM Tris-HCl, pH 7.7).
(§7) (5) Preparation of 2-[^125I] Iodomelatonin Solution
(§8) 2-[^125I] Iodomelatonin (#NEX236, PerkinElmer) was diluted with the assay buffer to 400 pM for MT1 and 1 nM for MT2.
(§9) The assay buffer (80 μL) of the above-mentioned (4) was added to each well of a 96-well plate (type 3363, Corning). […]

[2] = target: T2, human melatonin 1 receptors (human MT1 receptors) (Homo sapiens, UniProt P48039); assay: Melatonin receptor binding inhibitory test (2-[125I] Iodomelatonin), MT1; conditions: membrane fraction of CHO-hMelR7 cells, 25° C. for 2.5 hr
T2 construct: expressed in transfected cells; membrane fraction used
Protocol: as §1
(1) Preparation of CHO-hMelR7 Cells Expressing Human Melatonin 1 Receptors
A cDNA fragment (SEQ ID NO: 1) encoding full-length of human melatonin 1 receptors (human MT1 receptors) was incorporated into expression vector pAKKO-111H (former name pAKKO1.11H; Biochim Biophys Acta. Vol. 1219(2), pp. 251-259, 1994) to give plasmid pAKKO-hMelR7 for animal cell expression. CHO/dhfr-cells (ATCC, #CRL-9096) were plated at a concentration of 0.3×10^6 cells/dish in a 6 cm culture dish (Becton Dickinson), and cultured under the conditions of 37° C., 5% CO2 for 48 hr. The cells were transfected with pAKKO-hMelR7 plasmid DNA (5 μg) using Cellphect Transfection Kit (Amersham, #27-9268-01). The transfected cells were cultured in Dulbecco's modified Eagle medium (DMEM) (Sigma, #D6046) containing 10% dialyzed FBS (Biowest, #S180D), 1× Non-Essential Amino Acid (Invitrogen, #11140-050) and 50 μg/mL Gentamycin (Invitrogen, #15750-060), and the cell line that stably expressed the plasmid gene was selected. By a receptor binding assay using 2-[^125I] Iodomelatonin, CHO-hMelR7 cell line showing specific binding of 2-[^125I] Iodomelatonin was selected from the obtained clones.
as §2, §3, §4, §5, §6, §7, §8, §9

T2 sequence (P48039 whole entry): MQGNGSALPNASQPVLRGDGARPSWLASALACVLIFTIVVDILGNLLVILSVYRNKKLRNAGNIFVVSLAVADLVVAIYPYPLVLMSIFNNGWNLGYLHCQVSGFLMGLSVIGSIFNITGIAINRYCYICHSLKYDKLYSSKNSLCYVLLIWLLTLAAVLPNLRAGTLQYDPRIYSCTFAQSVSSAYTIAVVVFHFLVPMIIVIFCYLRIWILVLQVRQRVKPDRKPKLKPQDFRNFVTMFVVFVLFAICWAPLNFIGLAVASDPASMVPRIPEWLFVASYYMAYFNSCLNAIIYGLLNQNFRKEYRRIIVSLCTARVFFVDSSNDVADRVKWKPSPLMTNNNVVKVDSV

Row | Compound | IC50 [1] [nM] | IC50 [2] [nM] | melting point [°C]
1 | CC(=O)NCCC1CCc2ccn3nccc3c21 (stereo not drawn) [Example 11, N-[2-(8,9-dihydro-7H-cyclopenta[c]pyrazolo[1,5-a]pyridin-9-yl)ethyl]acetamide] | ≤ 100 | ≤ 100 | 100 to 101
2 | CCC(=O)NCCC1CCc2ccn3nccc3c21 (stereo not drawn) [Example 12, N-[2-(8,9-dihydro-7H-cyclopenta[c]pyrazolo[1,5-a]pyridin-9-yl)ethyl]propanamide] | ≤ 100 | ≤ 100 | 72 to 73
3 | CC(=O)NCCC1CCc2ccn3nc(C)c(C)c3c21 (stereo not drawn) [Example 14, N-[2-(1,2-dimethyl-8,9-dihydro-7H-cyclopenta[c]pyrazolo[1,5-a]pyridin-9-yl)ethyl]acetamide] | ≤ 100 | ≤ 100 | 134 to 135
4 | CC(=O)NCC[C@@H]1CCc2ccc3nn(C)c(F)c3c21 [Example 23, N-{2-[(8S)-1-fluoro-2-methyl-2,6,7,8-tetrahydrocyclopenta[e]indazol-8-yl]ethyl}acetamide] | ≤ 100 | ≤ 100 | 155 to 156
5 | CC(=O)NCC[C@@H]1CCc2ccc3nn(C)c(Cl)c3c21 [Example 24, N-{2-[(8S)-1-chloro-2-methyl-2,6,7,8-tetrahydrocyclopenta[e]indazol-8-yl]ethyl}acetamide] | ≤ 100 | ≤ 100 | 168 to 171
6 | CC(=O)NCCC1CCc2c(F)cc3nn(C)cc3c21 (stereo not drawn) [Example 28, N-[2-(5-fluoro-2-methyl-2,6,7,8-tetrahydrocyclopenta[e]indazol-8-yl)ethyl]acetamide] | ≤ 100 | ≤ 100 | 116 to 119
7 | CCC(=O)NCCC1CCc2c(F)cc3nn(C)cc3c21 (stereo not drawn) [Example 29, N-[2-(5-fluoro-2-methyl-2,6,7,8-tetrahydrocyclopenta[e]indazol-8-yl)ethyl]propanamide] | ≤ 100 | ≤ 100 | 117 to 119
8 | CC(=O)NCC=C1CCc2c(Cl)cc3nn(C)cc3c21 [Example 30, N-[2-(5-chloro-2-methyl-6,7-dihydrocyclopenta[e]indazol-8(2H)-ylidene)ethyl]acetamide] | ≤ 100 | ≤ 100 | 177 to 178
9 | CC(=O)NCCC1CCc2c(Cl)cc3nn(C)cc3c21 (stereo not drawn) [Example 31, N-[2-(5-chloro-2-methyl-2,6,7,8-tetrahydrocyclopenta[e]indazol-8-yl)ethyl]acetamide] | ≤ 100 | ≤ 100 | 143 to 144
10 | Cc1cc2c3c(ccn2n1)CCC3CCNC(=O)C1CC1 (stereo not drawn) [Example 33, N-[2-(2-methyl-8,9-dihydro-7H-cyclopenta[c]pyrazolo[1,5-a]pyridin-9-yl)ethyl]cyclopropanecarboxamide] | ≤ 100 | ≤ 100 | 112 to 113
